As a reminder, the GI50 is the concentration at which growth is held to half of that of the control.

Among the data in US12558428B2, “Heterobifunctional compounds and their use in treating disease” (Halda Therapeutics OpCo, Inc., priority 2024, dated 2026) are GI50 values, retold here.

What all share (assay type): cell-based
In assay [1] the test system is T-Rex 293 cells having increased expression of estrogen receptor alpha protein. Kind of assay: Cellular growth inhibition assay, T-Rex 293 cells, (+) doxycycline. The note with it: T-REx-293, 72 h, Table 7-A; T-Rex 293 cells with doxycycline (increased ERα expression); 72 hours; CellTiter-Glo; read-out: (+) Dox GI50. Summed up: (§1)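 Cells of an inducible ERα-expressing T-Rex 293 clone are seeded in charcoal-dextran FBS medium with or without 3 ng/mL doxycycline, then treated after 24 h with compound dilutions (0.5% DMSO) for 72 h. Growth inhibition is measured by CellTiter-Glo luminescence and expressed as GI50.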
A general note: In ATP-based viability assays light output follows the ATP content of the culture.

Assay [2] has as its system T-Rex 293 cells lacking increased expression of estrogen receptor alpha protein. Kind of assay: Cellular growth inhibition assay, T-Rex 293 cells, (−) doxycycline. The note with it: T-REx-293, 72 h, Table 7-A; T-Rex 293 cells without doxycycline (lacking increased ERα expression); 72 hours; CellTiter-Glo; read-out: (−) Dox GI50. Summed up:
as §1

Assay [3] deals with MCF7 cells (ATCC #HTB-22). The experiment in a line: Cellular growth inhibition assay, MCF7 cells purchased from ATCC. The conditions noted are these: Homo sapiens, MCF7, 144 h, Table 8-A; MCF7 cells purchased from ATCC; six days; CellTiter-Glo; read-out: GI50. Summed up: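 GI50 values come from a four-parameter fit of CellTiter-Glo 2.0 luminescence after six days of compound exposure at 37° C. Seeding density depended on the source: 225 cells/well for ECACC MCF7, 1,500 for ATCC. Medium was RPMI 1640 with 10% FBS and 0.2 U/ml insulin.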

As to `Cc1sc2c(c1C)C(c1ccc(N3CC(CC4(O)CCN(CC5CN(c6ccc([C@@H]7c8ccc(O)cc8CC[C@@H]7c7ccc(F)cc7)cc6)C5)CC4)C3)cc1)=N[C@@H](C)c1nnc(C)n1-2` [III-239], the results for the GI50 in assay [1], in assay [2] and in assay [3] were below 50 nM, 50 to 500 nM and below 50 nM, respectively.

Consider `Cc1sc2c(c1C)C(c1ccc(N3CC(CC4(O)CN(CC5CN(c6ccc([C@@H]7c8ccc(O)cc8CC[C@@H]7c7ccccc7)cc6)C5)C4)C3)cc1)=NC(C)c1nnc(C)n1-2` (stereo partly drawn) [III-240], for which the results for the GI50 in assay [1], in assay [2] and in assay [3] were below 50 nM, 50 to 500 nM and below 50 nM, respectively.

Regarding `Cc1sc2c(c1C)C(c1ccc(N3CC(O)(CC4CN(CC5CN(c6ccc([C@@H]7c8ccc(O)cc8CC[C@@H]7c7ccccc7)cc6)C5)C4)C3)cc1)=N[C@@H](C)c1nnc(C)n1-2` [III-241], the GI50 in assay [1] was below 50 nM; in assay [2] it was 50 to 500 nM; in assay [3], below 50 nM.

For `Cc1sc2c(c1C)C(c1ccc(N3CC4(CC(CN5CCC(c6ccc([C@@H]7c8ccc(O)cc8CC[C@@H]7c7ccccc7)cc6)CC5)C4)C3)cc1)=N[C@@H](C)c1nnc(C)n1-2` [III-242], the concentration for 50% growth inhibition (GI50) was below 50 nM in assay [1], 500 to 2500 nM in assay [2] and below 50 nM in assay [3].

Turning to `Cc1sc2c(c1C)C(c1ccc(N3CC4(CC(CN5CCN(c6ccc([C@@H]7c8ccc(O)cc8CC[C@@H]7c7ccccc7)cc6)CC5)C4)C3)cc1)=N[C@@H](C)c1nnc(C)n1-2` [III-243], the values for the GI50 in assay [1], in assay [2] and in assay [3] were below 50 nM, 500 to 2500 nM and below 50 nM, respectively.

For `Cc1sc2c(c1C)C(c1ccc(N3CCC(O)(CN4CCN(c5cc(F)c([C@@H]6c7ccc(O)cc7CC[C@@H]6c6ccccc6)cc5F)CC4)CC3)cc1)=N[C@@H](C)c1nnc(C)n1-2` [III-246], the figures for the concentration for 50% growth inhibition (GI50) in assay [1], in assay [2] and in assay [3] were below 50 nM, 500 to 2500 nM and below 50 nM, respectively.

With `Cc1sc2c(c1C)C(c1ccc(N3CCC(O)(CN4CCN(c5cc(F)c([C@H]6c7ccc(O)cc7CC[C@H]6c6ccccc6)cc5F)CC4)CC3)cc1)=N[C@@H](C)c1nnc(C)n1-2` [III-247], the GI50 was below 50 nM in assay [1], 50 to 500 nM in assay [2] and 50 to 500 nM in assay [3].

On to `Cc1sc2c(c1C)C(c1ccc(N3CCC(O)(CN4CCN(c5ccc([C@@H]6c7ccc(O)cc7CC[C@@H]6c6ccc(F)cc6)c(F)c5)CC4)CC3)cc1)=N[C@@H](C)c1nnc(C)n1-2` [III-248], for which the values for the GI50 in assay [1], in assay [2] and in assay [3] were below 50 nM, 500 to 2500 nM and below 50 nM, respectively.

`Cc1sc2c(c1C)C(c1ccc(N3CCC(O)(CN4CCN(c5ccc([C@H]6c7ccc(O)cc7CC[C@H]6c6ccc(F)cc6)c(F)c5)CC4)CC3)cc1)=N[C@@H](C)c1nnc(C)n1-2` [III-249]: the 50% growth inhibitory concentration (GI50) in assay [1] was in the range of 50 to 500 nM; in assay [2] it was 500 to 2500 nM; in assay [3], 50 to 500 nM.

Turning to `Cc1sc2c(c1C)C(c1ccc(N3CCC(O)(CN4CCN(c5ccc([C@H]6c7ccc(O)cc7CC[C@H]6c6ccc(F)cc6)cc5F)CC4)CC3)cc1)=N[C@@H](C)c1nnc(C)n1-2` [III-250, 4-((4-(2-fluoro-4-((1S,2R)-2-(4-fluorophenyl)-6-hydroxy-1,2,3,4-tetrahydronaphthalen-1-yl)phenyl)piperazin-1-yl)methyl)-1-(4-((S)-2,3,6,9-tetramethyl-6H-thieno[3,2-f][1,2,4]triazolo[4,3-a][1,4]diazepin-4-yl)phenyl)piperidin-4-ol], the GI50 in assay [1], in assay [2] and in assay [3] was 50 to 500 nM in each case.

As for `Cc1sc2c(c1C)C(c1ccc(N3CCC(O)(CN4CCN(c5ccc([C@@H]6c7ccc(O)cc7CC[C@@H]6c6ccc(F)cc6)cc5F)CC4)CC3)cc1)=N[C@@H](C)c1nnc(C)n1-2` [III-251, 4-((4-(2-fluoro-4-((1R,2S)-2-(4-fluorophenyl)-6-hydroxy-1,2,3,4-tetrahydronaphthalen-1-yl)phenyl)piperazin-1-yl)methyl)-1-(4-((S)-2,3,6,9-tetramethyl-6H-thieno[3,2-f][1,2,4]triazolo[4,3-a][1,4]diazepin-4-yl)phenyl)piperidin-4-ol], the GI50 in assay [1] was below 50 nM; in assay [2] it was 500 to 2500 nM; in assay [3], below 50 nM.
